Assay results as given in patent US20200085058A1, “SELECTIVE HERBICIDES BASED ON SUBSTITUTED THIEN-3-YL-SULPHONYLAMINO(THIO)CARBONYLTRIAZOLIN(THI)ONES AND SAFENERS” (Bayer CropScience Aktiengesellschaft, priority 2001, published 2020).

What was measured:
Type in all cases: in vivo
winter barley [1] = assay: Example A-2 post-emergence test/greenhouse, crop damage, 0.5% Renex-36
Method: (§1) The active compound or safener components are in each case dissolved in a few ml (generally 2-3 ml) of solvent (generally acetone or N,N-dimethyl-formamide), and the solutions are combined and then—if appropriate after addition of an emulsifier—diluted with water to the desired concentration. In general, an aqueous spray liquor was prepared using 0.1% of the additive Renex-36.
(§2) The test plants are grown under controlled conditions (temperature, light, atmospheric humidity) in a greenhouse. The test plants are sprayed when they have reached a height of 5-15 cm. The concentration of the spray liquor is chosen such that the particular amounts of active compound desired are applied in 500 l of water/ha.
(§3) After spraying, the pots with the test plants are kept in a greenhouse chamber under controlled conditions (temperature, light, atmospheric humidity) until the test has ended. About three weeks after the application, the degree of damage to the crop plants is rated in % damage in comparison to the development of the untreated control.
(§4) The figures denote: • 0%=no damage (like untreated control) • 100%=total destruction/damage
Here, an aqueous spray liquor comprising 0.5% of the additive Renex-36 was prepared.

maize cv. "Pioneer" = assay: Example A post-emergence test/greenhouse, crop damage, 0.1% Renex-36; details: 10 g of a.i./ha; Table A1; about three weeks after application
Method: The active compound or safener components are in each case dissolved in a few ml (generally 2-3 ml) of solvent (generally acetone or N,N-dimethyl-formamide), and the solutions are combined and then—if appropriate after addition of an emulsifier—diluted with water to the desired concentration. […] The test plants are grown under controlled conditions (temperature, light, atmospheric humidity) in a greenhouse. […] The concentration of the spray liquor is chosen such that the particular amounts of active compound desired are applied in 500 l of water/ha. After spraying, the pots with the test plants are kept in a greenhouse chamber under controlled conditions (temperature, light, atmospheric humidity) until the test has ended. About three weeks after the application, the degree of damage to the crop plants is rated in % damage in comparison to the development of the untreated control. […] Active compounds, application rates, test plants and results are shown in the tables below, the terms being used in the tables being as defined below: • maize=maize cv. “Pioneer” • a.i.=active ingredient=active compound/safener

[2] = test system: maize of the cultivar "Prinz"; assay: Example A-3 post-emergence test/greenhouse, crop damage, Maize 1; details: 7 days after the application, Table A-3-1
Method: as §1, §2
(§5) After spraying, the pots with the test plants are kept in a greenhouse chamber under controlled conditions (temperature, light, atmospheric humidity) until the test has ended. […]
as §4
(§6) The compound I-2 was used as 10 WP. In each case, Marlipal® was added in an amount of 500 ml/ha.
(§7) Evaluation was carried out as early as 7 days after the application. • Maize 1=maize of the cultivar “Prinz” • Maize 2=maize of the cultivar “Pioneer” • Maize 3=maize of the cultivar “LIXIS”

[3] = test system: maize of the cultivar "Pioneer"; assay: Example A-3 post-emergence test/greenhouse, crop damage, Maize 2; details: 7 days after the application, Table A-3-2
Method: as §1, §2, §5, §4, §6, §7

[4] = test system: maize of the cultivar "LIXIS"; assay: Example A-3 post-emergence test/greenhouse, crop damage, Maize 3; details: 7 days after the application, Table A-3-3
Method: as §1, §2, §5, §4, §6, §7

winter wheat [5] = assay: Example A-5 post-emergence test/greenhouse, crop damage
Method: as §1, §2, §3, §4
(§8) Mefenpyr-diethyl was used as 100 EC and the compound of Ex. No. I-2 was used as 10 WP.

winter barley [6] = assay: as above
Method: as §1, §2, §3, §4, §8

winter barley [7] = assay: Example A-4 post-emergence test/greenhouse, crop damage; details: safener alone 50 g of a.i./ha; Table A-4-4
Method: as §1, §2, §3, §4
(§9) Mefenpyr-diethyl was used as 100 EC.
(§10) The compounds of Ex. Nos. I-2 and I-13 were used as 10 WP.

winter wheat [8] = assay: as above; details: safener alone 50 g of a.i./ha; Table A-4-1
Method: as §1, §2, §3, §4, §9, §10

In the case of COCC(=O)Nc1ccc(S(=O)(=O)NC(=O)c2ccccc2OC)cc1 [Comp. No. IId-25], the “Damage winter barley (in %)” value (winter barley [1]; safener alone 30 g of a.i./ha, Table A-2-2) is reported as 0% and the “Damage winter barley (in %)” value (winter barley [1]; safener alone 100 g of a.i./ha, Table A-2-2) is reported as 0%.
With COC(=O)c1csc(C)c1S(=O)(=O)[N-]C(=O)n1nc(OC)n(C)c1=O.[Na+] [I-2, sodium salt] the “Damage winter barley (in %)” value (winter barley [1]; 2 g of a.i./ha, Table A-2-1) was 50% and the “Damage winter barley (in %)” value (winter barley [1]; 4 g of a.i./ha, Table A-2-1) was 60%.
For COC(=O)c1csc(C)c1S(=O)(=O)NC(=O)n1nc(OC)n(C)c1=O [I-2], the “Damage maize (in %)” value (maize cv. "Pioneer") was 35%, the “Damage Maize 1 (in %)” value ([2]; 8 g of a.i./ha) was 10% and the “Damage Maize 1 (in %)” value ([2]; 15 g of a.i./ha) was 20%. The “Damage maize 2 (in %)” value ([3]; 8 g of a.i./ha) was 10%, the “Damage maize 2 (in %)” value ([3]; 15 g of a.i./ha) was 20% and the “Damage Maize 3 (in %)” value ([4]; 8 g of a.i./ha) was 20%. For the same compound, the “Damage Maize 3 (in %)” value ([4]; 15 g of a.i./ha) was 40%.
CCOC(=O)c1csc(C)c1S(=O)(=O)NC(=O)n1nc(OC)n(C)c1=O [I-13] was tested, and the “Damage winter wheat (in %)” value (winter wheat [5]; in vivo) was 50%.
For CCOn1c(CC)nn(C(=O)NS(=O)(=O)c2c(C(=O)OC)csc2C)c1=O [I-17], the “Damage winter barley (in %)” value (winter barley [6]; 8 g of a.i./ha, Table A-5-13) was 70%, the “Damage winter barley (in %)” value (winter barley [6]; 15 g of a.i./ha, Table A-5-13) was 70% and the “Damage winter barley (in %)” value (winter barley [6]; 30 g of a.i./ha, Table A-5-13) was 80%. The “Damage winter wheat (in %)” value (winter wheat [5]; 8 g of a.i./ha, Table A-5-7) was 40%, the “Damage winter wheat (in %)” value (winter wheat [5]; 15 g of a.i./ha, Table A-5-7) was 50% and the “Damage winter wheat (in %)” value (winter wheat [5]; 30 g of a.i./ha, Table A-5-7) was 70%.
In the case of CCOC(=O)C1=NN(c2ccc(Cl)cc2Cl)C(C)(C(=O)OCC)C1 (centres unmarked) [mefenpyr-diethyl, diethyl 1-(2,4-dichloro-phenyl)-4,5-dihydro-5-methyl-1H-pyrazole-3,5-dicarboxylate, reference compound], the “Damage winter barley (in %)” value (winter barley [7]) is reported as 0%, the “Damage winter wheat (in %)” value (winter wheat [8]) is reported as 0% and the “Damage winter barley (in %)” value (winter barley [6]; safener alone 50 g of a.i./ha, Table A-5-11) is reported as 0%. The “Damage winter wheat (in %)” value (winter wheat [5]; safener alone 50 g of a.i./ha, Table A-5-1) was 0%, the “Damage winter wheat (in %)” value (winter wheat [5]; safener alone 50 g of a.i./ha, Table A-5-2) was 0% and the “Damage winter wheat (in %)” value (winter wheat [5]; safener alone 50 g of a.i./ha, Table A-5-3) was 0%. The “Damage winter wheat (in %)” value (winter wheat [5]; safener alone 50 g of a.i./ha, Table A-5-4) was 0% and the “Damage winter wheat (in %)” value (winter wheat [5]; safener alone 50 g of a.i./ha, Table A-5-5) was 0%.
